Test results published in patent EP0233031B1, “Methylthioribose analogues, their preparation and use as medicinal agents and biocides” (STATE OF OREGON BY AND THROUGH OREGON STATE BOARD OF HIGHER …, priority 1986, dated 1987).

How the values were obtained:
Assay type in all cases: cell-based
Candida albicans [1] = experiment: Growth inhibition of Candida albicans in LB broth (optical density / visible growth); settings: for OD550 24 hrs / OD550 7 days / OD550 at 24 Hrs: 10^4 cells; for OD550 at 24 Hrs: LB broth
Protocol: In the following examples, an MTR kinase-dependent microorganism is treated in vitro with compounds of this invention. In the following examples, LB is a growth medium (Luria-Bertani) containing, per liter, 10 grams Bacto-tryptone, 5 grams Bacto-yeast extract and 10 grams NaCl. OD₅₅₀ is a measure of the optical density of the suspension at the indicated time. Low optical density indicates a low cell concentration in the suspension and thus that compounds were effective to inhibit the growth of the microorganisms.

Candida albicans [2] = experiment: Colony count of Candida albicans after incubation with ETR (cytocidal vs cytostatic); settings: for Total # Organisms: colonies x dilution factor 200; for Colonies: 10^3 orgs, 100 l of 1:10 dilution plated
Excerpt: In this example, samples containing a known number of microorganisms were colonized without ETR and in the presence of ETR. In the instances where growth occurred, one colony formed for each microorganism.

Plasmodium falciparum = Plasmodium falciparum in vitro erythrocyte culture, Giemsa-stained thin smears
Protocol: • a. Procedure. Parasitized erythrocytes from a stock four-day-old culture at approximately 10% infection were mixed with washed clean erythrocytes to give a final parasitemia of approximately 1%. Using 1.2 cm plastic Petri dishes duplicate 1 ml cultures were initiated with drug dilutions in complete RPMI-1640, containing 0.1 ml of erythrocytes and 50 ug of gentamycin/ml. The cultures were supplemented with RPMI-1640 (25 mM HEPES), 0.24% sodium bicarbonate and 10% human serum (Type A⁻). All cultures were gassed with 90% nitrogen, 5% carbon dioxide and 5% oxygen prior to incubation at 37°C. Parasite growth was assessed by microscopic evaluation of Giemsa-stained thin-smears. • b. Results. [formula]

mouse marrow = experiment: CFU-GM assay, toxicity toward mouse marrow
Excerpt: In the following examples, human bone marrow and mouse marrow cells were subjected to ethylthioribose. In each case, a preparation of immature blood cells from bone marrow were conventionally stimulated to mature in a gel matrix. Immature human granulocytic precursor (CFU-GM) cells formed a colony in the matrix and the number of cells in the colony was counted. Such tests are believed to be a good measure of the toxicity of the subject compounds to humans.

[3] = test system: Giardia lamblia (Portland 1 strain); experiment: Inhibition of Giardia lamblia culture (cell number by hemacytometer)
Protocol: • a. Procedure. Giardia lamblia was cultured in Diamond's TP-S-1 medium supplemented with 10% heat-inactivated calf serum and antibiotics (penicillin and streptomycin). The antibiotics were added to prevent contamination by bacteria. Tube cultures containing 7 mls of medium were seeded with 5 x 10⁴ organisms per ml and incubated horizontally at 37°C for 48 hrs. ETR was added at the beginning of the experiment. Cell number was determined with the aid of a hemacytometer. • b. Results. [formula]

[4] = test system: Ochromonas malhamensis (ATCC #11532); experiment: Toxicity to Ochromonas malhamensis culture (cell number by hemacytometer); settings: Poterioochromonas malhamensis, ATCC11532; 48 hours of incubation; thioglycolate broth; 4x10^4 cells per ml; read-out: ID50 (the source's name)
Protocol: • a. Procedure. 2 ml cultures of O. malhamensis were set up at a cell density of 4x10⁴ per ml. The culture medium used was thioglycolate broth and incubation took place at ambient temperature near a south-facing window (these organisms are photosynthetic). ETR was added at the appropriate dilution at the beginning of the experiment. Cell number was determined using a hemacytometer. The data (shown below) were obtained after 48 hours of incubation. • b. Results. [formula]

## OC1O[C@H](CCl)[C@@H](O)[C@H]1O (some centres unmarked) [5-Chloro-5-Deoxyribose, 5-deoxy-5-chlororibose]
Candida albicans [1]; 0.2 of 10mM stock + LB 1.8
  OD550 24 hrs: 0.0
  OD550 7 days: 0.0
Candida albicans [1]; 0.4 of 10mM stock + LB 1.6
  OD550 24 hrs: 0.0
  OD550 7 days: 0.0
Candida albicans [1]; 0.8 of 10mM stock + LB 1.2
  OD550 24 hrs: 0.0
  OD550 7 days: 0.0
Candida albicans [1]; conclusion of Example 20
  killing of Candida albicans: effective to kill

## CCSC[C@H]1OC(O)[C@H](O)[C@@H]1O (some centres unmarked) [ETR, 5-ethylthio-5-deoxyribose]
Candida albicans [2]; 3 hrs (+ETR) 4mM
  Total # Organisms: 400
Candida albicans [2]; 3 hrs incubation with ETR 0.5ml (4mM)
  Colonies: 2
Candida albicans [2]; 5 hrs (w/ETR) 4mM
  Total # Organisms: 0
Candida albicans [2]; 5 hrs incubation with ETR 1.5ml (4mM)
  Colonies: 0
Candida albicans [2]; conclusion of Example 19
  cytocidal as opposed to cytostatic: cytocidal
Candida albicans [2]; summary statement of Example 19
  colonies formed in the presence of ETR: less than 1,000 colonies
Candida albicans [1]; ETR 0.092mM
  OD550 at 24 Hrs: 0.409
Candida albicans [1]; ETR 0.23mM
  OD550 at 24 Hrs: 0.355
Candida albicans [1]; ETR 0.46mM
  OD550 at 24 Hrs: 0.357
Candida albicans [1]; ETR 0.9mM
  OD550 at 24 Hrs: 0.120
Candida albicans [1]; ETR 2.3mM
  OD550 at 24 Hrs: 0.0
Candida albicans [1]; ETR 4.6mM
  OD550 at 24 Hrs: 0.0
Candida albicans [1]; ETR 9.2mM
  OD550 at 24 Hrs: 0.0
Candida albicans [1]; conclusion of Examples 17 and 18
  growth of Candida albicans: clearly inhibits the growth
Plasmodium falciparum; 24 hours, 1mM ETR
  parasitemia: remained at or below the level of the initial inoculum
Plasmodium falciparum; 24 hours, 1 mM ETR (lowest concentration tested)
  parasite growth: a small increase in growth was noted but the parasites appeared abnormal
Plasmodium falciparum; 24 hours, 5mM ETR
  parasitemia: remained at or below the level of the initial inoculum
Plasmodium falciparum; 48 hours, 1 mM ETR (lowest concentration tested), initial seeding <1.0%
  parasitemia: less than 0.1%
Plasmodium falciparum; 72 hours, 1 mM ETR (lowest concentration tested)
  infection: less than 1 parasite per 10,000 red cells
Plasmodium falciparum; 72 hours, all drug-treated cultures
  culture infection: completely negative
Plasmodium falciparum; after 5 days (the last 3 days without drug)
  reappearance of parasitemia: did not reappear
Plasmodium falciparum; overall conclusion
  inhibition of P. falciparum in vitro: inhibitory
Mouse marrow; ETR 100 (1:1)
  CFU-GM: 34 --
Mouse marrow; ETR 100 (1:1k), duplicate counts
  CFU-GM: 36,37
Mouse marrow; ETR 100 (1:2), duplicate counts
  CFU-GM: 37,33
Mouse marrow; ETR 100 (1:4), duplicate counts
  CFU-GM: 32,34
Mouse marrow; ETR 100 (1:10), duplicate counts
  CFU-GM: 36,34
Mouse marrow; ETR 100 (1:10k), duplicate counts
  CFU-GM: 35,32
Mouse marrow; ETR 100 (1:20k), duplicate counts
  CFU-GM: 32,34
Mouse marrow; ETR 100 (1:40), duplicate counts
  CFU-GM: 33,35
Mouse marrow; ETR 100 (1:50), duplicate counts
  CFU-GM: 37,36
Mouse marrow; ETR 100 (1:100)
  CFU-GM: 39 --
Mouse marrow; ETR 100 (1:100k), duplicate counts
  CFU-GM: 33,35
Mouse marrow; ETR 100 (stock), duplicate counts
  CFU-GM: 35,36
[3]; Giardia duodenalis, 48 hrs at 37°C, 5 x 10^4 organisms per ml, read-out: ID50 (the source's name)
  IC50: ~450 µM
[3]; concentrations ranging from 0.62mM to 5mM
  cell death and lack of "swimming": significant cell death and lack of "swimming"
[4]
  IC50: 20 µM
